Measured values from patent US20110256291A1, “CYCLIC LIPOPEPTIDES FOR USE AS TASTE MODULATORS” (NUTRINOVA NUTRITION SPECIAL TIES & FOOD INGREDIENT GMBH, priority 2008, published 2011).

Target: T1, human T1R2/T1R3 taste receptor (Homo sapiens, UniProt Q7RTX0+Q8TE23)
T1 construct: the cDNA for the receptors ht1R2 and ht1R3 and the cDNA for the blasticidin S deaminase gene have been cloned; expressed in transfected cells; host or cells: HEK293 cell line stably expressing mouse G-alpha-15, stably transfected with the tricistronic vector pTrix-Eb-R2R3 and selected with blasticidin
T1 sequence (Q8TE23 20-839): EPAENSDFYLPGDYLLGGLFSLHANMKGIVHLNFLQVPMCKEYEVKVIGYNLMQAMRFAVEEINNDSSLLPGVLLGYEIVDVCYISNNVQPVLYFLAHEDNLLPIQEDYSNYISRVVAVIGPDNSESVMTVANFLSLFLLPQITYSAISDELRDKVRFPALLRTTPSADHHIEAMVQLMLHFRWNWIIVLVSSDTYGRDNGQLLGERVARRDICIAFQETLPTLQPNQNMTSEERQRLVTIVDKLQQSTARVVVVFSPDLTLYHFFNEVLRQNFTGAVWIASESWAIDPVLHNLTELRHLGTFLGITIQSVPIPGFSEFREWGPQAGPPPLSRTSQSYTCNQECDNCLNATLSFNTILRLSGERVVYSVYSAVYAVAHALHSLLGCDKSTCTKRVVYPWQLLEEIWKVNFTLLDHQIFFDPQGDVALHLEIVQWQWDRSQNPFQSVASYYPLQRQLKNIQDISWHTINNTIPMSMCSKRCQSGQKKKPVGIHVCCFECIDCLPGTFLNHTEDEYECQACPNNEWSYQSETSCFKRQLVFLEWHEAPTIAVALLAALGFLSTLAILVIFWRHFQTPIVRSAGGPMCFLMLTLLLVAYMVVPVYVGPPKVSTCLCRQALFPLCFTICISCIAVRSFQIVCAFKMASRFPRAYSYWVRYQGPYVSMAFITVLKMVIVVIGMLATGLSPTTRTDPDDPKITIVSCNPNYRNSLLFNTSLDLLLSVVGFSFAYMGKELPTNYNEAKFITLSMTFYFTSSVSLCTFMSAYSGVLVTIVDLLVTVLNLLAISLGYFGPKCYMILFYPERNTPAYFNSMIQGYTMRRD
T1 sequence (Q7RTX0 21-852): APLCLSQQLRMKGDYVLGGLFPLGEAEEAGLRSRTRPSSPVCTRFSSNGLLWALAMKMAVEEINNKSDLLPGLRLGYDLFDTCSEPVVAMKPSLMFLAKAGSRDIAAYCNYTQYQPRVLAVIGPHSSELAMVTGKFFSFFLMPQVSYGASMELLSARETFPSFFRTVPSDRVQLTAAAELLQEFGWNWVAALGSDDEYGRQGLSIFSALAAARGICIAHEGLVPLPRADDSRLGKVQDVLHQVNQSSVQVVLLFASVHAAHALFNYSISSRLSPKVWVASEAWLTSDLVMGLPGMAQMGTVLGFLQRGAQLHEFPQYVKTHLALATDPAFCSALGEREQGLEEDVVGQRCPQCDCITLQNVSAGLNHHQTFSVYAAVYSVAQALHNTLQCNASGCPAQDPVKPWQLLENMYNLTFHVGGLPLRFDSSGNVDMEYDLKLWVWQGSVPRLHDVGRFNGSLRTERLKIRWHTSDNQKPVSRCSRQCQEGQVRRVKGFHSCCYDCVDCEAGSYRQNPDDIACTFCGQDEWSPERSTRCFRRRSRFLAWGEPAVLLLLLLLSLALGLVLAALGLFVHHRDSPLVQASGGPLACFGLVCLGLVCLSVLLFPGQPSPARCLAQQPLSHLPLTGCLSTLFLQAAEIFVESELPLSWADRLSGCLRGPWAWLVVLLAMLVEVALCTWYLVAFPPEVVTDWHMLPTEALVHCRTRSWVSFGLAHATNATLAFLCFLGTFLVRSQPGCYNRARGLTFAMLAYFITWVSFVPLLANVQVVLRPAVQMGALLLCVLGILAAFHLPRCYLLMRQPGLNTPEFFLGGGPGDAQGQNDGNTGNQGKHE
Experiment: calcium dependent cell based assay (Fluo-4 AM) in HEK293 cells stably expressing G-alpha-15, human T1R2 and human T1R3
Conditions: 30 mM fructose (5.4 g/l), pre-examinations
Protocol: Fluo-4 AM assay with stable HEK293 cells—Stable cells are maintained in DMEM high-glucose medium (Invitrogen) supplemented with 10% fetal bovine serum (Biochrom) and 4 mM L-glutamine (Invitrogen). Cells for calcium imaging are maintained in DMEM low-glucose medium supplemented with 10% FBS and 1× Glutamax-1 (Invitrogen) for 48 hours before seeding. These stable cells are trypsinised after 48 hours (either with Trypsin-EDTA, Accutase or TrypLE) and seeded onto poly-D-lysine coated 96-well assay plates (Corning) at a density of 45,000 cells/well in DMEM low-glucose medium supplemented with 10% FBS and 1× Glutamax-1.
After 24 hours, the cells were loaded in 100 μl medium with additional 100 μl of 4 μM Fluo-4 (calcium sensing dye, 2 μM end concentration; Molecular Probes) in Krebs-HEPES (KH)-buffer for 1 hour. The loading reagent is then replaced by 200 μl KH-buffer per well. […]
The dye-loaded stable cells in plates were placed into a fluorescence microtiter plate reader to monitor fluorescence (excitation 488 nm, emission 520 nm) change after the addition of 50 μl KH-buffer supplemented with 5× tastants. […]
Calcium mobilization was quantified as the change of peak fluorescence (ΔF) over the baseline level (F0). Data were expressed as the mean S.E. of the (ΔF/F0) value of replicated independent samples. The analysis was done with the software of the microtiter plate reader. […]

O=C(CO)[C@@H](O)[C@H](O)[C@H](O)CO [fructose]
activation of the sweet taste receptors: barely activating
